Laboratory results as given in patent US8952024B2, “Herbicidal pyrimidone derivatives” (E I du Pont de Nemours and Company, priority 2009, dated 2015).

Key:
Format in all cases: in vivo
[1] = tested on: pigweed (Amaranthus retroflexus); assay: Test A pre-/postemergence plant response
In short: (§1)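 Formulated test chemicals (non-phytotoxic solvent, surfactant) were sprayed onto soil right after planting and simultaneously onto young plants at one to two leaves, 2 to 10 cm tall. Plants stayed in the greenhouse about ten days; injury was then visually scored against untreated controls, from 0 (no effect) to 100 (complete control).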

[2] = tested on: barnyardgrass (Echinochloa crus-galli); assay: Test A pre-/postemergence plant response
In short: as §1

[3] = tested on: giant foxtail (Setaria faberii); assay: Test A pre-/postemergence plant response
In short: as §1

[4] = tested on: wheat (Triticum aestivum); assay: Test A pre-/postemergence plant response
In short: as §1

[5] = tested on: large crabgrass (Digitaria sanguinalis); assay: Test A pre-/postemergence plant response
In short: as §1

[6] = tested on: corn (Zea mays); assay: Test A pre-/postemergence plant response
In short: as §1

[7] = tested on: morningglory (Ipomoea spp.); assay: Test A pre-/postemergence plant response
In short: as §1

[8] = tested on: velvetleaf (Abutilon theophrasti); assay: Test A pre-/postemergence plant response
In short: as §1

[9] = tested on: barnyardgrass (Echinochloa crus-galli); assay: Test B flooded paddy test; conditions: for Plant response rating, Barnyardgrass: Flood (flooded paddy test), 13 to 15 days; for Barnyardgrass plant response rating: Flood, 31 g ai/ha, scale 0 to 100 (0 no effect, 100 complete control)
In short: (§2)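 Rice, umbrella sedge, ducksalad and barnyardgrass were grown to the 2-leaf stage, flooded to 3 cm, and compound was applied directly to the paddy water, with that depth kept throughout. After 13 to 15 days in the greenhouse, plants were visually rated against controls on a 0 (no effect) to 100 (complete control) scale.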

[10] = tested on: rice (Oryza sativa); assay: Test B flooded paddy test; conditions: for Plant response rating, Rice: Flood (flooded paddy test), 13 to 15 days; for Rice plant response rating: Flood, 31 g ai/ha, scale 0 to 100 (0 no effect, 100 complete control)
In short: as §2

[11] = tested on: ducksalad (Heteranthera limosa); assay: Test B flooded paddy test; conditions: for Plant response rating, Ducksalad: Flood (flooded paddy test), 13 to 15 days; for Ducksalad plant response rating: Flood, 31 g ai/ha, scale 0 to 100 (0 no effect, 100 complete control)
In short: as §2

[12] = tested on: umbrella sedge (Cyperus difformis); assay: Test B flooded paddy test; conditions: for Plant response rating, Sedge, Umbrella: Flood (flooded paddy test), 13 to 15 days; for Sedge, Umbrella plant response rating: Flood, 31 g ai/ha, scale 0 to 100 (0 no effect, 100 complete control)
In short: as §2

[13] = Postemergence, 125 g ai/ha, 0 to 100 scale where 0 is no effect and 100 is complete control
[14] = Postemergence, 500 g ai/ha, 0 to 100 scale, 0 = no effect, 100 = complete control, approx. ten days
[15] = Preemergence, 125 g ai/ha, 0 to 100 scale, 0 = no effect, 100 = complete control
[16] = Preemergence, 500 g ai/ha, visual injury, 0 to 100 scale (0 no effect, 100 complete control), approx. ten days
[17] = 250 g ai/ha, flooded paddy test, visual rating on 0 to 100 scale (0 no effect, 100 complete control) after 13 to 15 days
[18] = 62 g ai/ha, scale of 0 to 100 where 0 is no effect and 100 is complete control
[19] = 125 g ai/ha, scale 0 to 100, 0 is no effect, 100 is complete control
[20] = Postemergence, 500 g ai/ha, visual injury, 0 to 100 scale (0 no effect, 100 complete control), approx. ten days
[21] = Preemergence, 500 g ai/ha, 0 to 100 scale, 0 = no effect, 100 = complete control

With CCn1c(-c2cccc(F)c2)ncc(C(=O)C2=C(O)CCCC2=O)c1=O [Compound 124] the “Plant response rating, Pigweed” value [1, 13] was 90, the “Plant response rating, Pigweed” value [1, 14] was 100 and the “Plant response rating, Pigweed” value [1, 15] was 100. For the same molecule, the “Plant response rating, Pigweed” value [1, 16] was 100, the “Plant response rating, Barnyardgrass” value [2, 13] was 40 and the “Plant response rating, Barnyardgrass” value [2, 14] was 90. The “Plant response rating, Barnyardgrass” value [2, 15] was 20, the “Plant response rating, Barnyardgrass” value [2, 16] was 60 and the “Plant response rating, Foxtail, Giant” value [3, 13] was 50. The “Plant response rating, Foxtail, Giant” value [3, 14] was 70, the “Plant response rating, Foxtail, Giant” value [3, 15] was 10 and the “Plant response rating, Foxtail, Giant” value [3, 16] was 40. For the same molecule, the “Plant response rating, Wheat” value [4, 13] was 0, the “Plant response rating, Wheat” value [4, 14] was 0 and the “Plant response rating, Wheat” value [4, 15] was 0. For the same molecule, the “Plant response rating, Wheat” value [4, 16] was 0, the “Plant response rating, Crabgrass, Large” value [5, 13] was 70 and the “Plant response rating, Crabgrass, Large” value [5, 14] was 90. For the same molecule, the “Plant response rating, Crabgrass, Large” value [5, 15] was 60, the “Plant response rating, Crabgrass, Large” value [5, 16] was 90 and the “Plant response rating, Corn” value [6, 13] was 0. For the same molecule, the “Plant response rating, Corn” value [6, 14] was 20, the “Plant response rating, Corn” value [6, 15] was 0 and the “Plant response rating, Corn” value [6, 16] was 0. The “Plant response rating, Morningglory” value [7, 13] was 100, the “Plant response rating, Morningglory” value [7, 14] was 100 and the “Plant response rating, Morningglory” value [7, 15] was 60. For the same molecule, the “Plant response rating, Morningglory” value [7, 16] was 80, the “Plant response rating, Velvetleaf” value [8, 13] was 100 and the “Plant response rating, Velvetleaf” value [8, 14] was 100. The “Plant response rating, Velvetleaf” value [8, 15] was 70, the “Plant response rating, Velvetleaf” value [8, 16] was 100 and the “Plant response rating, Flood, Barnyardgrass” value [9, 17] was 30. The “Plant response rating, Barnyardgrass” value [9, 18] was 0, the “Plant response rating, Barnyardgrass” value [9, 19] was 0 and the “Barnyardgrass plant response rating” value [9] was 0. For the same molecule, the “Plant response rating, Flood, Rice” value [10, 17] was 20, the “Plant response rating, Rice” value [10, 18] was 15 and the “Plant response rating, Rice” value [10, 19] was 20. The “Rice plant response rating” value [10] was 0, the “Plant response rating, Flood, Ducksalad” value [11, 17] was 0 and the “Plant response rating, Ducksalad” value [11, 18] was 0. The “Plant response rating, Ducksalad” value [11, 19] was 0, the “Ducksalad plant response rating” value [11] was 0 and the “Plant response rating, Flood, Sedge, Umbrella” value [12, 17] was 40. The “Plant response rating, Sedge, Umbrella” value [12, 18] was 0, the “Plant response rating, Sedge, Umbrella” value [12, 19] was 20 and the “Sedge, Umbrella plant response rating” value [12] was 0.

C#CCn1c(-c2cc(F)cc(F)c2)ncc(C(=O)C2=C(O)CCCC2=O)c1=O [Compound 170] was tested, and the “Plant response rating, Pigweed” value [1, 13] was 80, the “Pigweed plant response rating” value [1, 20] was 100 and the “Plant response rating, Pigweed” value [1, 15] was 30. The “Plant response rating, Pigweed” value [1, 21] was 50, the “Plant response rating, Barnyardgrass” value [2, 13] was 40 and the “Barnyardgrass plant response rating” value [2, 20] was 90. The “Plant response rating, Barnyardgrass” value [2, 15] was 0, the “Plant response rating, Barnyardgrass” value [2, 21] was 60 and the “Plant response rating, Foxtail, Giant” value [3, 13] was 50. The “Foxtail, Giant plant response rating” value [3, 20] was 80, the “Plant response rating, Foxtail, Giant” value [3, 15] was 10 and the “Plant response rating, Foxtail, Giant” value [3, 21] was 70. For the same molecule, the “Plant response rating, Wheat” value [4, 13] was 0, the “Wheat plant response rating” value [4, 20] was 20 and the “Plant response rating, Wheat” value [4, 15] was 0. For the same molecule, the “Plant response rating, Wheat” value [4, 21] was 20, the “Plant response rating, Crabgrass, Large” value [5, 13] was 60 and the “Crabgrass, Large plant response rating” value [5, 20] was 90. The “Plant response rating, Crabgrass, Large” value [5, 15] was 10, the “Plant response rating, Crabgrass, Large” value [5, 21] was 70 and the “Plant response rating, Corn” value [6, 13] was 20. For the same molecule, the “Corn plant response rating” value [6, 20] was 30, the “Plant response rating, Corn” value [6, 15] was 0 and the “Plant response rating, Corn” value [6, 21] was 0. For the same molecule, the “Plant response rating, Morningglory” value [7, 13] was 100, the “Morningglory plant response rating” value [7, 20] was 100 and the “Plant response rating, Morningglory” value [7, 15] was 0. The “Plant response rating, Morningglory” value [7, 21] was 70, the “Plant response rating, Velvetleaf” value [8, 13] was 100 and the “Velvetleaf plant response rating” value [8, 20] was 100. For the same molecule, the “Plant response rating, Velvetleaf” value [8, 15] was 10, the “Plant response rating, Velvetleaf” value [8, 21] was 80 and the “Plant response rating, Barnyardgrass” value [9, 19] was 30. For the same molecule, the “Barnyardgrass plant response rating” value [9] was 0, the “Plant response rating, Rice” value [10, 19] was 20 and the “Rice plant response rating” value [10] was 15. For the same molecule, the “Plant response rating, Ducksalad” value [11, 19] was 45, the “Ducksalad plant response rating” value [11] was 0 and the “Plant response rating, Sedge, Umbrella” value [12, 19] was 35. The “Sedge, Umbrella plant response rating” value [12] was 0.
